{
  "source": "patent US11331375B2",
  "about": "“Compositions and methods for regulating leukocyte adhesion” (University of Virginia Patent Foundation, priority 2015, dated 2022)",
  "key": {"[1]": {"test_system": "paired mesenteric arterioles", "assay": "Ex vivo vascular perfusion ATP release assay, mesenteric arterioles", "assay_type": "cell-based, mouse", "conditions": "TNFα 50 ng/mL", "procedure": "For isolated blood vessel experiments, 2nd order venules or arterioles were dissected from the mouse mesentery circulation and cannulated on glass micropipettes to access the vessel lumen. […] Vessels were then perfused with MOPS PSS containing 300 μM ARL 67156 +/− pharmacological inhibitors and incubated for an additional 20 minutes prior to perfusion with MOPS PSS containing recombinant murine TNFα (R&D Systems). Aliquots of the lumenal perfusate were collected every 5 minutes for a 25-minute period and the ATP concentration was quantified by bioluminescence as described above. Data are expressed as mean±SEM (n=4 independent experiments)."}, "Panx1 channels in HUVEC": {"target": "T1, Panx1 channels in HUVEC (Homo sapiens, UniProt Q96RD7)", "T1 construct": "Primary human umbilical vein endothelial cells (HUVEC) were purchased from Cell Applications; PromoCell 200K-05; C-12231; host or cells: HUVEC, HSaVEC (primary human venous endothelial cells)", "T1 sequence (Q96RD7 whole entry)": "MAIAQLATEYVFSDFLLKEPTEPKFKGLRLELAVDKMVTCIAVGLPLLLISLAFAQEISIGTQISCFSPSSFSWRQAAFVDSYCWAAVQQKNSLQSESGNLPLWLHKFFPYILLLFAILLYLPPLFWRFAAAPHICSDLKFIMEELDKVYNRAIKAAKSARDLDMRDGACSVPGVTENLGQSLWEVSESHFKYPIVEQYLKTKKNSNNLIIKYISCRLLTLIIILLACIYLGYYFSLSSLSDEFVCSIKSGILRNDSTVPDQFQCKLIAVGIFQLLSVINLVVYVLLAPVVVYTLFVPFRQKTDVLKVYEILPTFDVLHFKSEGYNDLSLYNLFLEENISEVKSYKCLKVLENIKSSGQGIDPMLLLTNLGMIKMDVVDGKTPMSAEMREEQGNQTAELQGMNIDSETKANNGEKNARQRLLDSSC", "assay": "YO-PRO-1 dye uptake assay", "assay_type": "cell-based", "conditions": "TNFα 30 minutes, dose dependent", "procedure": "HUVECs were cultured on poly-L-lysine coated coverslips and grown to confluence in EGM. Cells were washed three times with 1× PBS and incubated in fresh EGM for 30 minutes prior to stimulation. To stimulate YO-PRO-1 dye uptake, YO-PRO-1 (1 μM) was added to the media and EC monolayers were treated with TNFα at a range of concentrations (0.1 ng/mL-100 ng/mL) for 30 minutes. At the end of the stimulation, cells were washed 3× with 1× PBS and immediately fixed in 4% PFA. Coverslips were then mounted on microscope slides with DAPI ProlongGold mounting agent and visualized on an Olympus IX81 laser scanning confocal microscope. Dye uptake was quantified as the intensity of YO-PRO-1 fluorescence over time using ImageJ software. For time course analysis, YO-PRO-1 was added to the culture media at various time points after TNFα stimulation and incubated to the 30-minute time point. Data are expressed as mean±SEM (n=3 independent experiments)."}, "Panx1": {"test_system": "Panx1", "assay": "Western blot of Panx1 phosphorylation at Y198 in venous ECs", "assay_type": "cell-based, human", "conditions": "HUVEC and HSaVECs; TNFα 10 ng/mL", "procedure": "Following stimulation with TNFα (in vitro: 10 ng/mL; ex vivo: 50 ng/mL), confluent endothelial cell monolayers or isolated mesenteric venules were homogenized in ice cold Triton extraction buffer (50 mM Tris-HCL, 150 mM NaCl , 5 mM EDTA, 1% deoxycholate, 1% NP-40 and 1% Triton-X100 in phosphate buffered saline and pH adjusted to 7.4) containing protease and phosphatase inhibitors. Cell/Tissue lysates were incubated with rotation at 4° C. for 20 minutes to solubilize proteins, followed by centrifugation for 5 minutes at 13,000× g to pellet cell debris. Protein concentration was quantified using the BCA method. 15-20 μg of total protein was subjected to SDS gel electrophoresis using 4-12% Bis-Tris gels (Invitrogen) and transferred to nitrocellulose membranes for immunoblotting. Membranes were blocked for 1 hr at room temperature with LiCOR blocking solution, then incubated overnight at 4° C. with primary antibodies against pY416SFKs, (BD Biosciences; 1:1000) pY198Panx1 (Alpha Diagnostic Intl (ADI); 1:1000) and GAPDH (Sigma; 1:10,000) or an antibody against the intracellular loop of Panx1 (Panx1-IL) (ADI; 1:1000) (normalization controls). Membranes were then washed and incubated with LiCOR secondary antibodies (1:10,000) and visualized and quantitated using LiCOR Odyssey. To inhibit SFK activity, EC monolayers were incubated with the SFK inhibitor PP2 (Tocris; 10 μM). […] To show specificity for the phosphorylated form of SFKs and Panx1, cell lysates were incubated with alkaline phosphatase for 1 hour at 37° C. Western blot images have been cropped for presentation. Uncropped Western blots can be found in FIGS. 12-13. Data are expressed as mean±SEM (n=3 independent experiments)."}, "[2]": {"test_system": "THP-1 monocyte adhesion to HUVEC", "assay": "Static adhesion assay, THP-1 monocytes on HUVEC", "assay_type": "cell-based, human", "conditions": "HUVEC monolayers activated with TNFα for 30 minutes", "procedure": "HUVECs were seeded on gelatin-coated glass coverslips in 6-well plates and grown to confluence. On the day of the experiment, cells were washed 2× with 1× PBS and incubated for 30 minutes in basal EGM supplemented with 1% BSA in the presence or absence of pharmacological inhibitors. During this incubation period, human THP-1 monocytes were loaded with Calcein-AM (Invitrogen; 5 μg/mL) for 30 minutes at 37° C. Cells were then pelleted by brief centrifugation and excess calcein was removed by washing THP-1 cells 3 times in 1× PBS. Next, HUVECs were stimulated with TNFα (10 ng/mL) for 30 minutes. Following EC activation, calcein-loaded THP-1 monocytes were added to EC monolayers and incubated for 20 minutes at 37° C. to allow THP-1 to contact ECs. Monolayers were then washed 3× with 1× PBS and fixed in ice cold 4% PFA. Following fixation, coverslips were removed from the 6-well plates and mounted on glass microscope slides with Prolong Gold anti-fade mountant with DAPI (Life Technologies). Fluorescent micrographs were obtained at 10×magnification and the number of adherent THP-1 monocytes/ECs was quantified in 5 randomized regions/slide. Data are expressed as mean±SEM (n=3 independent experiments)."}, "C57B1/6J mice": {"test_system": "C57B1/6J mice", "assay": "Intravital microscopy of cremaster muscle for leukocyte adhesion and emigration", "assay_type": "in vivo, mouse", "conditions": "topical TNFα on cremaster, after 120 minutes", "procedure": "Mice were prepared for intravital microscopy of the cremaster muscle as described previously^25. Briefly, mice were anesthetized with ketamine hydrochloride (150 mg/kg, IP) and xylazine (7.5 mg/kg, IP). The cremaster was isolated, laid over a viewing pedestal, superfused with bicarbonate-buffered saline. After 30 min equilibration, a venule with a wall shear rate (WSR) of ≥500/s, diameter between 20 μm and 40 μm, and the least number of adherent and emigrated leukocytes was chosen for further study. A 1 min baseline recording was made, after which superfusion was stopped, and 50 μl TNFα (1.7 ng/ml in 0.1% BSA) or vehicle control was added under a saran wrap cover every 30 min. 1 min recordings were made just prior to each addition, for 3 hrs. The TNFα was initially reconstituted in PBS at 3.4 ng/ml and 150 μl aliquots were frozen. An aliquot was mixed 1:1 with BBS containing 0.2% BSA at the time of the experiment. Leukocyte adhesion and emigration were determined by off-line analysis. Leukocytes were considered adherent if they stopped for at least 30 s (expressed as #/mm^2 vessel wall), and emigrated leukocytes were leukocytes identified in the interstitium (expressed as #cells/mm^2 tissue). Data are expressed as mean±SEM (n=6-7 independent animals/group)."}, "Src Family Kinases (SFK)": {"test_system": "Src Family Kinases (SFK)", "assay": "Western blot of SFK activation in isolated mesenteric venules", "assay_type": "cell-based, mouse", "conditions": "mesenteric venules perfused with TNFα 50 ng/mL 30 minutes", "procedure": "Following stimulation with TNFα (in vitro: 10 ng/mL; ex vivo: 50 ng/mL), confluent endothelial cell monolayers or isolated mesenteric venules were homogenized in ice cold Triton extraction buffer (50 mM Tris-HCL, 150 mM NaCl , 5 mM EDTA, 1% deoxycholate, 1% NP-40 and 1% Triton-X100 in phosphate buffered saline and pH adjusted to 7.4) containing protease and phosphatase inhibitors. Cell/Tissue lysates were incubated with rotation at 4° C. for 20 minutes to solubilize proteins, followed by centrifugation for 5 minutes at 13,000× g to pellet cell debris. Protein concentration was quantified using the BCA method. 15-20 μg of total protein was subjected to SDS gel electrophoresis using 4-12% Bis-Tris gels (Invitrogen) and transferred to nitrocellulose membranes for immunoblotting. Membranes were blocked for 1 hr at room temperature with LiCOR blocking solution, then incubated overnight at 4° C. with primary antibodies against pY416SFKs, (BD Biosciences; 1:1000) pY198Panx1 (Alpha Diagnostic Intl (ADI); 1:1000) and GAPDH (Sigma; 1:10,000) or an antibody against the intracellular loop of Panx1 (Panx1-IL) (ADI; 1:1000) (normalization controls). Membranes were then washed and incubated with LiCOR secondary antibodies (1:10,000) and visualized and quantitated using LiCOR Odyssey. […] Data are expressed as mean±SEM (n=3 independent experiments)."}},
  "data": [
    {"substance": "TNFα", "values": [
      {"measurement": "ATP accumulation in the perfusate on cytokine perfusion", "setting": "[1]", "value": "absent"},
      {"measurement": "intracellular YO-PRO-1 dye accumulation", "setting": "Panx1 channels in HUVEC", "value": "significant increase"},
      {"measurement": "Panx1 phosphorylation at Y198", "setting": "Panx1", "value": "increased phosphorylation at Y198"},
      {"measurement": "increase of THP-1 monocyte adhesion", "setting": "[2]", "value": "~4", "unit": "fold"},
      {"measurement": "increase of leukocyte adhesion", "setting": "C57B1/6J mice", "value": "~2.5", "unit": "fold"},
      {"measurement": "increase of leukocyte emigration", "setting": "C57B1/6J mice", "value": "~3.5", "unit": "fold"},
      {"measurement": "SFK activation", "setting": "Src Family Kinases (SFK)", "value": "increasing SFK activation"}
    ]}
  ]
}
